From patent publication US20230348464A1, “NOVEL VDAC1 INHIBITORS” (ABARCEO AB, priority 2020, published 2023)

Target: T1, recombinant human VDAC1 (hVDAC1) (Homo sapiens, UniProt P21796)
T1 construct: His (N); GST (N); purchased LSBio LS-G25810; host or cells: E. coli
T1 sequence (P21796 whole entry): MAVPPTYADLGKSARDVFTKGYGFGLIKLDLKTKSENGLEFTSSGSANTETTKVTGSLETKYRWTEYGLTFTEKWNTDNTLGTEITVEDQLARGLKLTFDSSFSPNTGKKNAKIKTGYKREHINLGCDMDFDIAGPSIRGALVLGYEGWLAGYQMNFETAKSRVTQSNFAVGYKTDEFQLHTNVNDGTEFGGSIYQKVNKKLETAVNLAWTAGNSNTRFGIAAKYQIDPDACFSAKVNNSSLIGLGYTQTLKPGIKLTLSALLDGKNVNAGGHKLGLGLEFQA
Assay: Microscale Thermophoresis (MST) binding assay with labeled VDAC1
Conditions: MST plot of FIG. 1
Text: MicroScale Thermophoresis (MST) is a biophysical technique that measures the strength of interaction (affinity) between two molecules by detecting variations in fluorescence signal as a result of an IR-laser induced temperature change. The range of the variation in the fluorescence signal correlates with the binding of a ligand to a fluorescent target. By that it allows for quantitative analysis of molecular interactions in solution on the microliter scale with high sensitivity.The MST signal is composed of two major factors: The TRIC effect and the thermophoresis. TRIC stands for Temperature-Related Intensity-Change and describes how the fluorescence intensity of a fluorophore depends on the local temperature of the solution. For the vast majority of fluorophores, the fluorescence intensity decreases with increasing temperature. Most importantly, however, the extent of the temperature dependence is strongly related to the chemical environment of the fluorophore. This environment is sensitively affected by the binding of a ligand molecule to the fluorescently labeled target molecule (via conformational changes or ligand-dye proximity). The second component of the MST-signal, the thermophoresis describes the movement of molecules along temperature gradients which results in a quantifiable change of the local concentration of the target molecules. As these target molecules are fluorescently labeled in MST, such concentration changes can be monitored simply by fluorescence measurements. This directed movement of molecules depends on their molecular size, charge, and hydration shell. Binding of a ligand to a target molecule leads to the change of at least one of these parameters and therefore to an altered thermophoretic movement of the target-ligand complex compared to the single molecules alone. In sum, both TRIC and thermophoresis contribute to the overall MST-signal, which is detected by fluorescence measurement. Due to this robust physical principle and direct monitoring, MST can be used for determining the affinity and binding strength of almost any kind of molecular interaction or modification of small molecules, proteins, peptides, DNA, sugars, or molecular complexes.
Reconstituted N-terminal His-GST tagged E. coli recombinant human VDAC1 (hVDAC1) was buffer exchanged into protein labeling buffer due to the primary amine of the Tris lyophilization buffer interferes with NHS-based labeling. The labeling buffer was kept as close to the storage buffer of the target protein as given on the protein data sheet (LSBio LS-G25810). Tris was replaced by HEPES. PLURONIC® F-127 was added to 0.05% in order to enhance protein recovery in the final dye removal step. The total volume of the labeling batch was 100 µL. The labeling time was 30 minutes. The labeling reaction was performed at room temperature. Any unbound or unreacted dye was separated from the labeled protein on a gravity-flow gel-filtration column (GE Healthcare, PD Minitrap G-25, GE28-9180-07). The final target buffer was kept as close to the original protein storage buffer as possible. It contained Tris again instead of HEPES.
The first step of the technical assay establishment was a so-called “noise test”. In this test, the intrinsic MST-noise of the labeled target protein was tested. Subsequently, a reference compound or positive control (CAS number: 2086257-77-2) was characterized to confirm previously reported VDAC1 binding (Zhang et al (2019)). Preserving Insulin Secretion in Diabetes by Inhibiting VDAC1 Overexpression and Surface Translocation in β Cells″. Cell Metabolism 29, 64-77.). In short, serial dilutions of the compound having CAS number: 2086257-77-2 was prepared in a way to match the final buffer conditions in the reaction mix (assay buffer). The highest concentration of ligand was 10.0 mM and the lowest 4.88 µM. A total of 12 dilution steps were prepared. […]
With `O=C(CC(CO)N1CC2=C(CN(c3ccc(OC(F)(F)F)cc3)C2)C1)Nc1ccc(Cl)cc1` (centres unmarked) [Example 4, N-(4-chlorophenyl)-4-hydroxy-3-{5-[4-(trifluoromethoxy)phenyl]-1H,2H,3H,4H,5H,6H-pyrrolo[3,4-c]pyrrol-2-yl}butanamide] the “S/N of MST plot” value was 20.1 and the “dFnorm of MST plot” value was 23.9.

Same assay, conditions: MST, 5 nM labeled VDAC1, 25° C., 12-point dilution 100-0.04 µM; read-out: VDAC1 affinity (KD)
`O=C(CC(CO)N1CCN(c2ccc(OC(F)(F)F)cc2)CC1)Nc1ccc(Cl)cc1` (centres unmarked) [CAS: 2086257-77-2, N-(4-chlorophenyl)-4-hydroxy-3-{4-[4-(trifluoromethoxy)phenyl]piperazin-1-yl}butanamide, reference compound] showed a Kd of 14 µM.
Molecule `O=C(NCC(CO)N1CCN(c2ccc(OC(F)(F)F)cc2)CC1)c1ccc(Cl)cc1` (centres unmarked) [Example 1, 4-chloro-N-(3-hydroxy-2-{4-[4-(trifluoromethoxy)phenyl]piperazin-1-yl}propyl)benzamide] has a Kd of 12 µM.
With `O=C(CC(CCO)N1CCN(c2ccc(OC(F)(F)F)cc2)CC1)Nc1ccc(Cl)cc1` (centres unmarked) [Example 2, N-(4-chlorophenyl)-5-hydroxy-3-{4-[4-(trifluoromethoxy)phenyl]piperazin-1-yl}pentanamide] the Kd was 8.4 µM.
`O=C(CC(CO)N1CCCN(c2ccc(OC(F)(F)F)cc2)CC1)Nc1ccc(Cl)cc1` (centres unmarked) [Example 3, N-(4-chlorophenyl)-4-hydroxy-3-{4-[4-(trifluoromethoxy)phenyl]-1,4-diazepan-1-yl}butanamide] showed a Kd of 5.2 µM.
`O=C(CC(CO)N1CC2=C(CN(c3ccc(OC(F)(F)F)cc3)C2)C1)Nc1ccc(Cl)cc1` (centres unmarked) [Example 4, N-(4-chlorophenyl)-4-hydroxy-3-{5-[4-(trifluoromethoxy)phenyl]-1H,2H,3H,4H,5H,6H-pyrrolo[3,4-c]pyrrol-2-yl}butanamide] showed a Kd of 5.1 µM.
With `O=C(CC(CO)N1CCOC2(CCN(c3ccc(OC(F)(F)F)cc3)C2)C1)Nc1ccc(Cl)cc1` (centres unmarked) [Example 5, N-(4-chlorophenyl)-4-hydroxy-3-{2-[4-(trifluoromethoxy)phenyl]-6-oxa-2,9-diazaspiro[4.5]decan-9-yl}butanamide] the Kd was 3.8 µM.
For `O=C(CC(CO)N1CCCC(C2CN(c3ccc(OC(F)(F)F)cc3)C2)C1)Nc1ccc(Cl)cc1` (centres unmarked) [Example 6, N-(4-chlorophenyl)-4-hydroxy-3-(3-{1-[4-(trifluoromethoxy)phenyl]azetidin-3-yl}piperidin-1-yl)butanamide], the Kd was 9.8 µM.
For `O=C(CC(CO)N1CC2(CCN(c3ccc(OC(F)(F)F)cc3)C2)C1)Nc1ccc(Cl)cc1` (centres unmarked) [Example 7, N-(4-chlorophenyl)-4-hydroxy-3-{6-[4-(trifluoromethoxy)phenyl]-2,6-diazaspiro[3.4]octan-2-yl}butanamide], the Kd was 13.1 µM.
`O=C(CC(CO)N1CCCC2C1CCN2c1ccc(OC(F)(F)F)cc1)Nc1ccc(Cl)cc1` (centres unmarked) [Example 8, N-(4-chlorophenyl)-4-hydroxy-3-{1-[4-(trifluoromethoxy)phenyl]-octahydro-1H-pyrrolo[3,2-b]pyridin-4-yl}butanamide] showed a Kd of 2.8 µM.
For `O=C(CC(CO)N1CC2CN(c3ccc(OC(F)(F)F)cc3)CC2C1)Nc1ccc(Cl)cc1` (centres unmarked) [Example 9, N-(4-chlorophenyl)-4-hydroxy-3-{5-[4-(trifluoromethoxy)phenyl]-octahydropyrrolo[3,4-c]pyrrol-2-yl}butanamide], the Kd was 11.4 µM.
With `O=C(CC(CO)N1CCCC2(CCCN(c3ccc(OC(F)(F)F)cc3)C2)C1)Nc1ccc(Cl)cc1` (centres unmarked) [Example 10, N-(4-chlorophenyl)-4-hydroxy-3-{8-[4-(trifluoromethoxy)phenyl]-2,8-diazaspiro[5.5]undecan-2-yl}butanamide] the Kd was 1.9 µM.

Test system: islets of human T2D organ donors
Assay: not given
Conditions: acute exposure of the T2D islets; cited from earlier work
In the case of `O=C(CC(CO)N1CCN(c2ccc(OC(F)(F)F)cc2)CC1)Nc1ccc(Cl)cc1` (centres unmarked) [CAS: 2086257-77-2, N-(4-chlorophenyl)-4-hydroxy-3-{4-[4-(trifluoromethoxy)phenyl]piperazin-1-yl}butanamide, reference compound], the “glucose-stimulated insulin secretion (GSIS)” value is given as “restored GSIS”.
